Laboratory results taken from patent US20060004002A1 (priority 2004, published 2006).
Like-named read-outs stand apart in the source and are kept apart here.

Experiments:
Recombinant human Src = molecular target: T1, Recombinant human Src (Homo sapiens, UniProt P12931); test: Src tyrosine kinase activity assay with poly E4Y and 32P-ATP; type: biochemical
T1 construct: made in house; host or cells: baculovirus-insect cell system
Procedure: (§1) Recombinant human Src was expressed using the baculovirus-insect cell system and purified as published (Budde et al., 1993 and 2000). Recombinant Csk and the FGF receptor (FGFr) were expressed as […] fusion proteins using the pGEX expression vector and E. coli, and purified as described (Sun & Budde, 1995).
(§2) The tyrosine kinase activity of Src, Csk and FGFr was determined using poly E4Y and ^32P-ATP. Briefly, enzymes were assayed in a reaction mixture […] consisting of 0.15 M EPPS-NaOH (pH 8.0) with 6 mM MgCl2, 0.2 mM γ^32P-ATP (0.2-0.4 mCi/μmol), 10% glycerol, 0.1% Triton X-100, and poly E4Y. Poly E4Y is a synthetic peptide whose phosphorylation is measured in this assay by the addition of the radioactively labeled phosphate from the ATP (Budde et al., 1995). […] When ATP was varied (0, 50, 100 and 250 μM), poly E4Y was kept constant at 150 μg/ml.

Recombinant Csk = molecular target: T2, Recombinant Csk (Homo sapiens, UniProt P41240); test: Csk tyrosine kinase activity assay with poly E4Y and 32P-ATP; type: biochemical; conditions: NI = no inhibition
T2 construct: GST ('glutathione-5-transferase' [sic]); made in house; host or cells: E. coli (pGEX expression vector)
Procedure: as §1, §2

[1] = poly E4Y, 32P-ATP, NI = no inhibition, read-out: IC50 Value Src
[2] = especially good inhibitors of Src, screening assay 50 μg/ml poly E4Y, 0.2 mM ATP, read-out: IC50 (inhibitors of Src)

T1 sequence (P12931 whole entry): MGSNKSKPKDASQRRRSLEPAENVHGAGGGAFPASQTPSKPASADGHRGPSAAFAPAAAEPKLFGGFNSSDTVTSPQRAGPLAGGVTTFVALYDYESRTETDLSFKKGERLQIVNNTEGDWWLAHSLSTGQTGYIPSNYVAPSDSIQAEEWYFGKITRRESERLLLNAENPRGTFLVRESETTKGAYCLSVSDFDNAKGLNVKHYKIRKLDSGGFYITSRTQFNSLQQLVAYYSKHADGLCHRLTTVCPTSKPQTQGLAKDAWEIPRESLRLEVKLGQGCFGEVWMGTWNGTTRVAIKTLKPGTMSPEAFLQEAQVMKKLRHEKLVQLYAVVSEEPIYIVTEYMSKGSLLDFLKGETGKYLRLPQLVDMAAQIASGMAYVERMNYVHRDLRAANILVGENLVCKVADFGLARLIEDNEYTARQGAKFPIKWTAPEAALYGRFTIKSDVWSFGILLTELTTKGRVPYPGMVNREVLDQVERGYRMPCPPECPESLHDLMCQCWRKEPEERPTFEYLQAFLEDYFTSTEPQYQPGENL

| Compound | IC50 (Recombinant human Src; [1]) | IC50 (Recombinant Csk) | IC50 (Recombinant human Src; [2]) |
| --- | --- | --- | --- |
| CCOc1ccccc1-c1sc2c(NN=Cc3ccc(OC)c(O)c3)ncnc2c1CO [Compound 33, 3-Hydroxy-4-methoxybenzaldehyde (7-hydroxymethyl-6-(2-ethoxyphenyl)thieno[3,2-d]pyrimidin-4-yl)hydrazone] | 11 nM | 10000 nM | – |
| C=Cc1c(-c2ccccc2OCC)sc2c(NN=Cc3ccc(OC)c(O)c3)ncnc12 [Compound 34, 3-Hydroxy-4-methoxybenzaldehyde (6-(2-ethoxyphenyl)-7-vinylthieno[3,2-d]pyrimidin-4-yl)hydrazone] | 39 nM | 1350 nM | ≤ 2000 nM |
| COc1ccc(C=NNc2ncnc3c(C)c(-c4ccc([N+](=O)[O-])cc4)sc23)cc1O [Compound 39, 3-Hydroxy-4-methoxybenzaldehyde (6-(4-nitrophenyl)-7-methylthieno[3,2-d]pyrimidin-4-yl)hydrazone] | 160 nM | 23000 nM | – |
| COc1ccc(C=NNc2ncnc3c(C)c(-c4ccc(N(C)C)cc4)sc23)cc1O [Compound 42, 3-Hydroxy-4-methoxybenzaldehyde (6-(4-N,N-dimethylaminophenyl)-7-methylthieno[3,2-d]pyrimidin-4-yl)hydrazone] | 72 nM | 460 nM | ≤ 2000 nM |
| COc1ccc(C=NNc2ncnc3c(C)c(-c4ccc(NC(C)=O)cc4)sc23)cc1O [Compound 43, 3-Hydroxy-4-methoxybenzaldehyde (6-(4-N-acetylaminophenyl)-7-methythieno[3,2-d]pyrimidin-4-yl)hydrazone] | 12 nM | 112000 nM | – |
| COc1ccc(C=NNc2ncnc3c(C)c(-c4cccc(C(N)=NO)c4)sc23)cc1O [Compound 45] | 19 nM | 26800 nM | – |
| Cc1c(-c2cccc(C(N)=NO)c2)sc2c(NN=Cc3cccnc3)ncnc12 [Compound 49, 3-Pyridinecarboxaldehyde (6-(N-hydroxy-benzamidin-3-yl)-7-methylthieno[3,2-d]pyrimidin-4-yl)hydrazone] | 4.1 nM | 124000 nM | – |
| Cc1c(-c2ccc(C(N)=NO)cc2)sc2c(NN=Cc3cccnc3)ncnc12 [Compound 50, 3-Pyridinecarboxaldehyde (6-(N-hydroxy-benzamidin-4-yl)-7-methylthieno[3,2-d]pyrimidin-4-yl)hydrazone] | 25 nM | 42000 nM | – |
| COc1ccc(C=NNc2ncnc3c(C)c(-c4ccc(C(N)=NO)cc4)sc23)cc1O [Compound 51, 3-Hydroxy-4-methoxybenzaldehyde (6-(N-hydroxy-benzamidin-4-yl)-7-methylthieno[3,2-d]pyrimidin-4-yl)hydrazone] | 11 nM | 47000 nM | – |
| COc1ccc(C=NNc2ncnc3c(CO)c(-c4ccc(N)cc4)sc23)cc1O [Compound 58, 3-Hydroxy-4-methoxybenzaldehyde (6-(4-aminophenyl)-7-hydroxymethylthieno[3,2-d]pyrimidin-4-yl)hydrazone] | 43 nM | 12000 nM | – |
| CCOc1cc(F)ccc1-c1sc2c(NN=Cc3ccc(OC)c(O)c3)ncnc2c1CO [Compound 60, 3-Hydroxy-4-methoxybenzaldehyde (6-(2-ethoxy-4-fluorophenyl)-7-hydroxymethylthieno[3,2-d]pyrimidin-4-yl)hydrazone] | 36 nM | 210000 nM | – |
| COc1ccc(C=NNc2ncnc3c(C)c(-c4ccccc4O)sc23)cc1O [Compound 84, 3-Hydroxy-4-methoxybenzaldehyde (6-(2-hydroxyphenyl)-7-methylthieno[3,2-d]pyrimidin-4-yl)hydrazone] | 180 nM | 500000 nM | – |
| CCOc1ccccc1-c1sc2c(NN=Cc3cccc(O)c3)ncnc2c1O [Compound 105, 3-Hydroxybenzaldehyde (6-(2-ethoxyphenyl)-7-hydroxythieno[3,2-d]pyrimidin-4-yl)hydrazone] | 4.3 nM | 900 nM | ≤ 2000 nM |
| CCOc1ccccc1-c1sc2c(NN=Cc3ccc(OC)c(O)c3)ncnc2c1CC [compound 35] | 14 nM | – | – |
| CCOc1ccccc1-c1sc2c(NN=Cc3ncc[nH]3)ncnc2c1C#N [compound 95] | 25 nM | – | – |
| CCOc1cc(F)ccc1-c1sc2c(NN=Cc3cccs3)ncnc2c1C#N [compound 108] | 8.5 nM | – | – |
| CCOc1ccccc1-c1sc2c(NN=Cc3c[nH]c(=O)[nH]c3=O)ncnc2c1C#N [compound 111] | 12 nM | – | – |
| CCOc1ccccc1-c1sc2c(NN=Cc3ccc(C(=O)OC)cc3)ncnc2c1C#N [compound 118] | 22 nM | – | – |
| CCOc1ccccc1-c1sc2c(NN=Cc3ccco3)ncnc2c1C#N [compound 119] | 4.7 nM | – | – |
| CCOc1ccccc1-c1sc2c(NN=Cc3sccc3C)ncnc2c1C#N [compound 122] | 5.2 nM | – | – |
| CCOc1ccccc1-c1sc2c(NN=Cc3ccc(C)s3)ncnc2c1C#N [compound 126] | 4.9 nM | – | – |
| CCOc1ccccc1-c1sc2c(NN=Cc3ccc(N(C)C)cc3)ncnc2c1C#N [compound 131] | 130 nM | – | – |
| CCOc1ccccc1-c1sc2c(NN=Cc3nccn3C)ncnc2c1C#N [compound 138] | 18 nM | – | – |

Now from value to compound:

| IC50 (Recombinant human Src; [1]) | IC50 (Recombinant Csk) | IC50 (Recombinant human Src; [2]) | Compound |
| --- | --- | --- | --- |
| 2.6 nM | 1280 nM | ≤ 2000 nM | CCOc1ccccc1-c1sc2c(NN=Cc3ccc(OC)c(O)c3)ncnc2c1O [Compound 37, 3-Hydroxy-4-methoxybenzaldehyde (6-(2-ethoxyphenyl)-7-hydroxythieno[3,2-d]pyrimidin-4-yl)hydrazone] |
| 1.1 nM | 46000 nM | – | CCOc1ccccc1-c1sc2c(NN=Cc3ccc(OC)c(OCCN4CCOCC4)c3)ncnc2c1C [Compound 52, 4-Methoxy-3-(2-(morpholin-4-yl)-ethoxy)-benzaldehyde (6-(2-ethoxyphenyl)-7-methylthieno[3,2-d]pyrimidin-4-yl)hydrazone] |
| 1.4 nM | 110000 nM | – | CCOc1ccccc1-c1sc2c(NN=Cc3ccc(OCCN4CCOCC4)c(OC)c3)ncnc2c1C [Compound 54, 3-Methoxy-4-(2-(morpholin-4-yl)-ethoxy)-benzaldehyde (6-(2-ethoxyphenyl)-7-methylthieno[3,2-d]pyrimidin-4-yl)hydrazone] |
| 0.73 nM | 580 nM | ≤ 2000 nM | CCOc1ccccc1-c1sc2c(NN=Cc3cc(OC)c(O)c(OC)c3)ncnc2c1O [Compound 96, 3,5-Dimethoxy-4-hydroxybenzaldehyde (6-(2-ethoxyphenyl)-7-hydroxythieno[3,2-d]pyrimidin-4-yl)hydrazone] |
| 1.3 nM | 2100 nM | – | CCOc1ccccc1-c1sc2c(NN=Cc3cc(O)c(OC)c(OC)c3)ncnc2c1O [Compound 100, 3,4-Dimethoxy-5-hydroxybenzaldehyde (6-(2-ethoxyphenyl)-7-hydroxythieno[3,2-d]pyrimidin-4-yl)hydrazone] |
| 1.6 nM | 980 nM | ≤ 2000 nM | CCOc1ccccc1-c1sc2c(NN=Cc3ccc(O)cc3)ncnc2c1O [Compound 104, 4-Hydroxybenzaldehyde (6-(2-ethoxyphenyl)-7-hydroxythieno[3,2-d]pyrimidin-4-yl)hydrazone] |
| 0.3 nM | – | – | CCOc1cc(F)ccc1-c1sc2c(NN=Cc3cc(OC)c(OCCN(CC)CC)c(OC)c3)ncnc2c1C [Compound 160, 4-(2-Diethylamino-ethoxy)-3,5-dimethoxy-benzaldehyde (6-(2-ethoxy-4-fluorophenyl)-7-methylthieno[3,2-d]pyrimidin-4-yl)hydrazone] |
| 1.5 nM | – | – | CCOc1ccccc1-c1sc2c(NN=Cc3ccc(OC)c(O)c3)ncnc2c1C#N [compound 47] |
| 1.2 nM | – | – | CCOc1ccccc1-c1sc2c(NN=Cc3cccnc3)ncnc2c1C#N [compound 67] |
| 1.4 nM | – | – | CCOc1ccccc1-c1sc2c(NN=Cc3ccc(O)c(OC)c3)ncnc2c1C#N [compound 86] |
| 0.31 nM | – | – | CCOc1ccccc1-c1sc2c(NN=Cc3cc(Br)c(O)c(OC)c3)ncnc2c1C#N [compound 87] |
| 2.1 nM | – | – | CCOc1ccccc1-c1sc2c(NN=Cc3ccc(O)c(Cl)c3)ncnc2c1C#N [compound 90] |
| 0.58 nM | – | – | CCOc1ccccc1-c1sc2c(NN=Cc3ccsc3)ncnc2c1C#N [compound 91] |
| 0.34 nM | – | – | CCOc1ccccc1-c1sc2c(NN=Cc3cc(OC)c(O)c(OC)c3)ncnc2c1C#N [compound 94] |
| 1 nM | – | – | CCOc1ccccc1-c1sc2c(NN=Cc3cc(O)c(OC)c(OC)c3)ncnc2c1C#N [compound 98] |
| 1.5 nM | – | – | CCOc1ccccc1-c1sc2c(NN=Cc3ccc(O)cc3)ncnc2c1C#N [compound 102] |
| 1.9 nM | – | – | CCOc1ccccc1-c1sc2c(NN=Cc3ccncc3)ncnc2c1C#N [compound 110] |
| 3.2 nM | – | – | CCOc1ccccc1-c1sc2c(NN=Cc3cccc(C(=O)O)c3)ncnc2c1C#N [compound 114] |
| 2.6 nM | – | – | CCOc1ccccc1-c1sc2c(NN=Cc3[nH]cnc3C)ncnc2c1C#N [compound 115] |
| 3 nM | – | – | CCOc1ccccc1-c1sc2c(NN=Cc3ccoc3)ncnc2c1C#N [compound 127] |
| 1.8 nM | – | – | CCOc1ccccc1-c1sc2c(NN=Cc3ccc(NC(C)=O)cc3)ncnc2c1C#N [compound 130] |
| 2.6 nM | – | – | CCOc1ccccc1-c1sc2c(NN=Cc3ccc(C)o3)ncnc2c1C#N [compound 134] |
| 4 nM | – | – | CCOc1ccccc1-c1sc2c(NN=Cc3ccc(F)cc3)ncnc2c1C#N [compound 135] |
